From patent US20220144812A1, “QUINOLINE DERIVATIVES AND THEIR USE FOR THE TREATMENT OF CANCER” (Epizyme, Inc., priority 2019, published 2022) come the findings set out here.

One test concerns the target T1, EP300 (P300(1048-1664)) (Homo sapiens, UniProt Q09472).
T1 construct: P300(1048-1664)
T1 sequence (Q09472 1048-1664): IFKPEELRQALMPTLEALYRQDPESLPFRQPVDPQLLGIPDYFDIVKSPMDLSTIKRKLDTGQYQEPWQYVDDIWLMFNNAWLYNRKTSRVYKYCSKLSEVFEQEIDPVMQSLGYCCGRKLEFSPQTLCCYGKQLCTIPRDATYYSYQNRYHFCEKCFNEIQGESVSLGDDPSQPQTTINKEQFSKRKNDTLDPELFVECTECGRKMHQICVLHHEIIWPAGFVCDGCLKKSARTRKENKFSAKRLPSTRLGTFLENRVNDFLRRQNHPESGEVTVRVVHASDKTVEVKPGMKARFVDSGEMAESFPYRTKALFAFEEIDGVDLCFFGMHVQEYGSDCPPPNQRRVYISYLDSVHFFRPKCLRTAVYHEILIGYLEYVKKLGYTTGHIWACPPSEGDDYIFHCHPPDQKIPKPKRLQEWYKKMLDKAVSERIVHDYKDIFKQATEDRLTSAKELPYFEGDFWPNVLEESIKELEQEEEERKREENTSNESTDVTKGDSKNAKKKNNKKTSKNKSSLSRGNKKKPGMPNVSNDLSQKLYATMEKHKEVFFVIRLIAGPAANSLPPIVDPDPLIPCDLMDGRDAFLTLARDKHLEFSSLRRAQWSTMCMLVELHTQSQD
Put plainly: Biochemical assay for EP300, SAMDI. Particulars: read-out: EP300 Biochemistry IC50. The source says: The following example describes materials and methods relating to a biochemical assay for EP300. IC50 values (micromolar (μM)) are summarized in Table 1, Table 2, and Table 3 under the column labeled: “EP300 Biochemistry IC50 (micromolar).”

A further test relates to 647V cells. Put plainly: High throughput proliferation (HTP) assay. In kind it is cell-based. Particulars: Homo sapiens, 647-V, read-out: CREBBP HTP IC50. A digest of the protocol:
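Proliferation IC50 (micromolar) derived from a 7-day CellTiter-Glo viable-cell readout in 647V cells exposed, in triplicate, to rising compound concentrations; cells grown in DMEM plus 15% heat-inactivated FBS at 37° C under 5% CO2.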

Test [1] relates to H3K18Ac in HB-CLS-2 cells. Put plainly: H3K18AC in-cell western (ICW) assay. Particulars: read-out: CREBBP ICW IC50. In kind it is cell-based. A digest of the protocol:
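In-cell western: after methanol fixation, blocking, overnight 4° C anti-H3K18Ac staining, then 800CW secondary plus DRAQ5 for DNA content, integrated intensities were scanned at 800 and 700 nm. Before this, compound exposure lasted 2 hr at 37° C in HB-CLS-2 cells plated 16–24 hours earlier. Values expressed as IC50 (μM).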

The next test concerns the target T2, CREBBP (1084-1701) (Homo sapiens, UniProt Q92793).
T2 construct: measured in the following biochemical assay using CREBBP (1084-1701); purchased
Description: Biochemical assay for CREBBP (1084-1701), SAMDI. Particulars: read-out: CREBBP Biochemistry IC50. The gist of the method: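 Acetyltransferase activity measured by SAMDI mass spectrometry after capture on biochip. Enzyme sat with compound 30 min at RT before acetyl-CoA and biotinylated H3 11-25 (K14R, K23R) peptide were added for 30 min at RT. Formic acid quench, bicarbonate neutralisation; IC50 values reported.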

[2] abbreviates: P300(1048-1664), Peptide #233, Ac-CoA, SAMDI mass spectrometry.
[3] abbreviates: 168 h, 647V cells, day 7, CellTiter-Glo.
[4] abbreviates: 2 h, H3K18Ac in HB-CLS-2 cells, 2 hrs compound incubation.
Setting [5] is: Peptide #233, Acetyl-CoA, SAMDI mass spectrometry.

Usually IC50 stands for the concentration that inhibits the measured activity by half.

Like-named read-outs stand apart in the source and are kept apart here.

T2 sequence (Q92793 1084-1701): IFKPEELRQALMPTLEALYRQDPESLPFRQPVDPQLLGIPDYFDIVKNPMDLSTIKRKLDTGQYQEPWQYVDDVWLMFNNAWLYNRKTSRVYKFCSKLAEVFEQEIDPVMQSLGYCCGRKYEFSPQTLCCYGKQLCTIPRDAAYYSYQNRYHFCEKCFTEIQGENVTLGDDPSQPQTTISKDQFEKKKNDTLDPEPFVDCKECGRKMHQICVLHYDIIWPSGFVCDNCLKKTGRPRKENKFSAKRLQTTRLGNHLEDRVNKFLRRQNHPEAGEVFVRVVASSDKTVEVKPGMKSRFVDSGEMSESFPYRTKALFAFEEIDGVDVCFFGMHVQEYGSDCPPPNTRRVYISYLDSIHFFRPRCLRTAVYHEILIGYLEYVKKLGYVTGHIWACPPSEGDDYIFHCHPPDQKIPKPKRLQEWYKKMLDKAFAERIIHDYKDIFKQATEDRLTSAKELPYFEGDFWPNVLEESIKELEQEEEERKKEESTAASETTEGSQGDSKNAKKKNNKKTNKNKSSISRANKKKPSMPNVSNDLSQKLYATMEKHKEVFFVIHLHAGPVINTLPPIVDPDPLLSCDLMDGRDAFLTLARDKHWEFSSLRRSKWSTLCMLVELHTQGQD

In the case of `CCn1ncc([C@H](C)N(C)C(=O)c2cc(-c3ccc(NCCNC)c(C)n3)nc3ccc(Cl)cc23)c1C` [Compound 607], the IC50 at EP300 (P300(1048-1664)) (EP300, SAMDI) was 3380 nM; with 647V cells (high throughput proliferation) it was 1970 nM; in test [1] (H3K18Ac in-cell western) it was 3270 nM; at CREBBP (1084-1701) (SAMDI), 6510 nM.
Turning to `CCn1ncc([C@@H](C)N(C)C(=O)c2cc(-c3ccc(NCCNC)c(C)n3)nc3ccc(Cl)cc23)c1C` [Compound 608], the IC50 stood at 26.4 nM on EP300 (P300(1048-1664)) (EP300, SAMDI); 39 nM with 647V cells (high throughput proliferation); 107 nM in test [1] (H3K18Ac in-cell western); 92.8 nM at CREBBP (1084-1701) (SAMDI).
As for `CCn1ncc([C@@H](C)N(C)C(=O)c2cc(-c3ccc(NCCN(C)C)c(C)n3)nc3ccc(Cl)cc23)c1C` [Compound 610], the IC50 amounted to 20.9 nM at EP300 (P300(1048-1664)) (EP300, SAMDI); 37.8 nM with 647V cells (high throughput proliferation); 85 nM in test [1] (H3K18Ac in-cell western); 59.6 nM at CREBBP (1084-1701) (SAMDI).
For `CCn1ncc(CN(C)C(=O)c2nc(-c3cc(C)nc(NCCOC)c3)nc3ccc(Cl)cc23)c1C` [Compound 611], in that order: 493 nM, 312 nM, 345 nM and 73.6 nM.
In the case of `CCn1ncc(CN(C)C(=O)c2nc(-c3cc4c(NC)[nH]nc4cc3C)nc3ccc(C)cc23)c1C` [Compound 612], the IC50 at EP300 (P300(1048-1664)) (EP300, SAMDI) stood at 6.6 nM; in the test with 647V cells (high throughput proliferation) it was 40.9 nM; in test [1] (H3K18Ac in-cell western), 46.3 nM; at CREBBP (1084-1701) (SAMDI), 18 nM.
In the case of `CCc1noc(CN(C)C(=O)c2cc(-c3ccc(NC4CN(C)C4)c(C)n3)nc3ccc(Cl)cc23)c1C` [Compound 613], the IC50 at EP300 (P300(1048-1664)) (EP300, SAMDI) was 11.2 nM; in the test on 647V cells (high throughput proliferation), 51.8 nM; in test [1] (H3K18Ac in-cell western) it was 53.8 nM; on CREBBP (1084-1701) (SAMDI) it was 19.1 nM.
With `CCn1ncc(CN(C)C(=O)c2nc(-c3cc4c(NC)[nH]nc4cc3C)nc3ccc(C4CC4)cc23)c1C` [Compound 614], the IC50 worked out at 8.7 nM at EP300 (P300(1048-1664)) (EP300, SAMDI); 34.6 nM in the test with 647V cells (high throughput proliferation); 32.1 nM in test [1] (H3K18Ac in-cell western); 22.9 nM on CREBBP (1084-1701) (SAMDI).
The like results for `CCc1noc(CN(C)C(=O)c2nc(-c3cc4c(NC)[nH]nc4cc3C)nc3ccc(Cl)cc23)c1C` [Compound 615] were, in that order, 3.1 nM, 19.5 nM, 29.1 nM and 9.75 nM.
For `CNc1[nH]nc2ccc(-c3nc(C(=O)N(C)Cc4cnc(C5CC5)n4C)c4cc(COC)ccc4n3)cc12` [Compound 616], in that order: 14.4 nM, 160 nM, 102 nM and 25.1 nM.
As to `CNc1[nH]nc2cc(C)c(-c3nc(C(=O)N(C)Cc4cnc(C5CC5)n4C)c4cc(COC)ccc4n3)cc12` [Compound 617], the IC50 on EP300 (P300(1048-1664)) (EP300, SAMDI) worked out at 13.3 nM; with 647V cells (high throughput proliferation), 84.1 nM; in test [1] (H3K18Ac in-cell western) it was 87.6 nM; on CREBBP (1084-1701) (SAMDI), 40.8 nM.
The like results for `CCn1ncc(CN(C)C(=O)c2nc(-c3cc(C(F)(F)F)c4[nH]nc(N)c4c3)nc3ccc(Cl)cc23)c1C` [Compound 618] were, in that order, 285 nM, 701 nM, 248 nM and 53.7 nM.
The like results for `CCn1ncc(CN(C)C(=O)c2cc(-c3ccc(NCCN(C)C)c(C(F)(F)F)n3)nc3ccc(Cl)cc23)c1C` [Compound 619] were, in that order, 14.5 nM, 32.5 nM, 59.9 nM and 23.8 nM.
Take `CNc1[nH]nc2cc(C)c(-c3nc(C(=O)N(C)Cc4cnn(CC(F)(F)F)c4C)c4cc(Cl)ccc4n3)cc12` [Compound 620]: the IC50 on EP300 (P300(1048-1664)) (EP300, SAMDI) is 12.3 nM; in the test on 647V cells (high throughput proliferation), 77.7 nM; in test [1] (H3K18Ac in-cell western) it was 67.2 nM; at CREBBP (1084-1701) (SAMDI), 25.1 nM.
As to `CCn1ncc(CN(C)C(=O)c2nc(-c3cnc4n[nH]c(N)c4c3)nc3ccc(Cl)cc23)c1C` [Compound 621], the IC50 on EP300 (P300(1048-1664)) (EP300, SAMDI) amounted to 397 nM; in the test on 647V cells (high throughput proliferation) it was 391 nM; in test [1] (H3K18Ac in-cell western), 222 nM; at CREBBP (1084-1701) (SAMDI), 216 nM.
For `CCc1noc(C(C)N(C)C(=O)c2nc(-c3cc4c(NC)[nH]nc4cc3C)nc3ccc(Cl)cc23)c1C` (stereo not shown) [Compound 622], the IC50 on EP300 (P300(1048-1664)) (EP300, SAMDI) was determined as 383 nM; in the test on 647V cells (high throughput proliferation), 2300 nM; in test [1] (H3K18Ac in-cell western) it was 1320 nM; at CREBBP (1084-1701) (SAMDI), 107 nM.
The like results for `CCn1ncc(CN(C)C(=O)c2nc(-c3cc(C(F)(F)F)c4[nH]nc(NC)c4c3)nc3ccc(Cl)cc23)c1C` [Compound 623] were, in that order, 28.3 nM, 711 nM, 230 nM and 43.9 nM.
For `CCn1ncc(CN(C)C(=O)c2nc(-c3cc4c(NC)noc4cc3C)nc3ccc(Cl)cc23)c1C` [Compound 624], in that order: 9.2 nM, 284 nM, 113 nM and 18.3 nM.
For `CCn1ncc(CN(C)C(=O)c2cc(-c3ccc(NCCS(C)(=O)=O)c(C)n3)nc3ccc(Cl)cc23)c1C` [Compound 625], in that order: 11.3 nM, 163 nM, 114 nM and 19.2 nM.
On to `Cc1nc(-c2cc(C(=O)N(C)Cc3cn(C)c(CC(F)(F)F)n3)c3cc(Cl)ccc3n2)ccc1NCCN(C)C` [Compound 626], for which the IC50 on EP300 (P300(1048-1664)) (EP300, SAMDI) turned out to be 4240 nM; in the test with 647V cells (high throughput proliferation), 5780 nM; in test [1] (H3K18Ac in-cell western) it was 3210 nM; at CREBBP (1084-1701) (SAMDI), 3310 nM.
The like results for `CCc1ncc(CN(C)C(=O)c2cc(-c3cc(C(=O)NC)n(C)n3)nc3ccc(COC)cc23)n1C` [Compound 627] were, in that order, 15.6 nM, 506 nM, 271 nM and 49.6 nM.
For `CCn1ncc(CN(C)C(=O)c2cc(-c3ccc(NCC4CN(C)CCO4)c(C)n3)nc3ccc(Cl)cc23)c1C` (stereo not shown) [Compound 628], in that order: 1730 nM, 997 nM, 3300 nM and 3630 nM.
For `CCc1ncc(CN(C)C(=O)c2cc(-c3cc(-c4ncc[nH]4)n(C)n3)nc3ccc(COC)cc23)n1C` [Compound 629], in that order: 16.8 nM, 292 nM, 256 nM and 34 nM.
Consider `CCc1ncc(CN(C)C(=O)c2nc(-c3cc(-c4ncc[nH]4)n(C)n3)nc3ccc(Cl)cc23)n1C` [Compound 631], for which the IC50 was 8.8 nM at EP300 (P300(1048-1664)) (setting [2]), 194 nM in the test with 647V cells (setting [3]), 125 nM in test [1] (setting [4]) and 16.7 nM on CREBBP (1084-1701) (setting [5]).
`CCn1ncc(CN(C)C(=O)c2nc(-c3cnc4n[nH]c(NC)c4c3)nc3ccc(Cl)cc23)c1C` [Compound 632]: the IC50 at EP300 (P300(1048-1664)) (setting [2]) came to 4.6 nM; in the test on 647V cells (setting [3]) it was 105 nM; in test [1] (setting [4]), 42.1 nM; at CREBBP (1084-1701) (setting [5]), 3.2 nM.
For `CCc1ncc(CN(C)C(=O)c2nc(-c3cc(C(=O)NC)n(C)n3)nc3ccc(C4CC4)cc23)n1C` [Compound 633], the IC50 on EP300 (P300(1048-1664)) (setting [2]) was 14.6 nM; in the test with 647V cells (setting [3]), 369 nM; in test [1] (setting [4]) it was 227 nM; on CREBBP (1084-1701) (setting [5]), 34.3 nM.
The like results for `CCn1ncc(CN(C)C(=O)c2cc(-c3cc(C(=O)NC)n(C)n3)nc3ccc(C4CC4)cc23)c1C` [Compound 635] were, in that order, 6.6 nM, 143 nM, 52.6 nM and 24.2 nM.
For `CCc1ncc(CN(C)C(=O)c2cc(-c3cc(C(=O)NC)n(C)n3)nc3ccc(C4CC4)cc23)n1C` [Compound 636], in that order: 5.6 nM, 132 nM, 65.4 nM and 24.8 nM.
For `CCc1ncc(CN(C)C(=O)c2cc(-c3ccc(NCCN(C)C)c(C)n3)nc3ccc(COC)cc23)n1C` [Compound 637], the IC50 on EP300 (P300(1048-1664)) (setting [2]) turned out to be 34.4 nM; in the test with 647V cells (setting [3]) it was 295 nM; in test [1] (setting [4]), 420 nM; on CREBBP (1084-1701) (setting [5]), 98.7 nM.
